# Laboratory results from article PMC7468108 (Communications Biology, 2020).
# How the values were obtained:
# hIAPP = target: T1, hIAPP (Homo sapiens, UniProt P10997); assay: CD spectroscopy of hIAPP aggregated with the tested molecules; details: increasing doses up to 5-fold molar excess
# T1 construct: hIAPP is a 37-amino acid neuroendocrine peptide hormone; purchased Peptide 2.0 (USA)
# T1 sequence (P10997 34-70 limits assumed): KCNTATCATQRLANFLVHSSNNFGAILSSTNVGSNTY
# Description: CD analysis was performed also for hIAPP (Fig. 2f and Supplementary Fig. 5). […] With different degrees of effectiveness, the presence of all tested hybrid molecules caused a reduction of the intensity of the CD signal, indicating an overall lower of β-sheet content of hIAPP (Fig. 2f and Supplementary Fig. 5).
# The blank was subtracted from the acquired CD spectra. For the CD study in the presence of the tryptophan-galacosylamine molecules, the spectra of hybrid molecules were also recorded separately and subtracted from the respective sample spectra. The normalized data were plotted using Origin pro 2015 software.
# Aβ42 = target: T2, Aβ42 (Homo sapiens, UniProt P05067); assay: ThT-binding assay, inhibition of Aβ42 aggregation; format: biochemical; details: for % amyloid of Aβ42: Aβ42 10 µM; for Normalized ThT fluorescence: Aβ42:compound 1:5
# T2 construct: purchased rPeptide (USA)
# T2 sequence (P05067 672-713 limits assumed): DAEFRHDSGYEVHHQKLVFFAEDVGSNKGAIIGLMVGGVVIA
# Description: ThT is known to intercalate within the amyloid fibrils resulting in fluorescence emission proportionate to the amyloid growth.
# The resulting thin films were dissolved in PBS (100 mM, pH 7.4) and sonicated for 5 min to get a stock concentration of 50 µM, which immediately diluted to required concentration for an experiment. Stock solutions of ThT (4 mM in PBS) and hybrid molecules (10 mM in PBS) were prepared. All the stock solutions were diluted according to the requirement.
# The experiment was performed according to the previous report. […] […] Excitation and emission wavelengths were set at 440 nm and 485 nm, respectively.
# [1] = target: T3, pre-formed fibrils of Aβ42 (Homo sapiens, UniProt P05067); assay: ThT-binding assay, disaggregation of pre-formed Aβ42 fibrils; format: biochemical; details: for % amyloid of Aβ42: disaggregation of pre-formed Aβ42 (10 µM) fibrils
# T3 construct: purchased rPeptide (USA)
# T3 sequence (P05067 672-713 limits assumed): as above
# Description: For efficient treatment of proteinopathies it may be advantageous to disassemble amyloid aggregates/fibrils which are usually already present at the time of diagnosis[75]–[77]. […] Then, various doses of the hybrid molecules were added to the pre-formed fibrils and the mixtures were incubated for additional 10 h. The process of disaggregation was monitored by ThT-binding assay, CD spectroscopy, TEM and Congo red staining (Fig. 5).
# The experiment was performed according to the previous report. […] Kinetics fluorescence data were collected at 37 °C in triplicate using Infinite M200 microplate reader (Tecan, Switzerland), with measurements acquired at 15 min intervals. Excitation and emission wavelengths were set at 440 nm and 485 nm, respectively.
smiles,measurement,setting,value
NC(Cc1c[nH]c2ccccc12)C(=O)NC(Cc1c[nH]c2ccccc12)C(=O)O (stereo not shown) [WW],"effect on hIAPP secondary structure (CD), in words",hIAPP,substantial effect
same,"inhibition of Aβ42 fibril formation (ThT), in words","Aβ42; any molar ratio (5:1, 1:1, 1:5)",no inhibition effect
same,% amyloid of Aβ42,Aβ42; molar ratio Aβ42:tested molecule 1:1,98.904%
same,% amyloid of Aβ42,Aβ42; molar ratio Aβ42:tested molecule 1:5,105.519%
same,% amyloid of Aβ42,Aβ42; molar ratio Aβ42:tested molecule 5:1,93.190%
same,Normalized ThT fluorescence,Aβ42; time 0.000 h,100.247
same,Normalized ThT fluorescence,Aβ42; time 0.167 h,60.188
same,Normalized ThT fluorescence,Aβ42; time 0.333 h,57.612
same,Normalized ThT fluorescence,Aβ42; time 0.500 h,73.246
same,Normalized ThT fluorescence,Aβ42; time 0.667 h,91.915
same,Normalized ThT fluorescence,Aβ42; time 0.833 h,133.372
same,Normalized ThT fluorescence,Aβ42; time 1.000 h,185.130
same,Normalized ThT fluorescence,Aβ42; time 1.167 h,238.325
same,Normalized ThT fluorescence,Aβ42; time 1.333 h,306.731
same,Normalized ThT fluorescence,Aβ42; time 1.500 h,377.171
same,Normalized ThT fluorescence,Aβ42; time 1.667 h,441.860
same,Normalized ThT fluorescence,Aβ42; time 1.833 h,512.406
same,Normalized ThT fluorescence,Aβ42; time 2.000 h,563.139
same,Normalized ThT fluorescence,Aβ42; time 2.167 h,622.335
same,Normalized ThT fluorescence,Aβ42; time 2.333 h,703.467
same,Normalized ThT fluorescence,Aβ42; time 2.500 h,748.995
same,Normalized ThT fluorescence,Aβ42; time 2.667 h,831.052
same,Normalized ThT fluorescence,Aβ42; time 2.833 h,768.926
same,Normalized ThT fluorescence,Aβ42; time 3.000 h,842.887
same,Normalized ThT fluorescence,Aβ42; time 3.167 h,889.978
same,Normalized ThT fluorescence,Aβ42; time 3.333 h,935.606
same,Normalized ThT fluorescence,Aβ42; time 3.500 h,870.330
same,Normalized ThT fluorescence,Aβ42; time 3.667 h,968.307
same,Normalized ThT fluorescence,Aβ42; time 3.833 h,972.259
same,Normalized ThT fluorescence,Aβ42; time 4.000 h,873.484
same,Normalized ThT fluorescence,Aβ42; time 4.167 h,934.106
same,Normalized ThT fluorescence,Aβ42; time 4.333 h,1006.391
same,Normalized ThT fluorescence,Aβ42; time 4.500 h,929.674
same,Normalized ThT fluorescence,Aβ42; time 4.667 h,937.654
same,Normalized ThT fluorescence,Aβ42; time 4.833 h,1043.183
same,Normalized ThT fluorescence,Aβ42; time 5.000 h,1070.273
same,Normalized ThT fluorescence,Aβ42; time 5.167 h,1001.135
same,Normalized ThT fluorescence,Aβ42; time 5.333 h,988.346
same,Normalized ThT fluorescence,Aβ42; time 5.500 h,1039.570
same,Normalized ThT fluorescence,Aβ42; time 5.667 h,1028.736
same,Normalized ThT fluorescence,Aβ42; time 5.833 h,1034.411
same,Normalized ThT fluorescence,Aβ42; time 6.000 h,1074.727
same,Normalized ThT fluorescence,Aβ42; time 6.167 h,1044.333
same,Normalized ThT fluorescence,Aβ42; time 6.333 h,1117.377
same,Normalized ThT fluorescence,Aβ42; time 6.500 h,1116.291
same,Normalized ThT fluorescence,Aβ42; time 6.667 h,1054.239
same,Normalized ThT fluorescence,Aβ42; time 6.833 h,1138.465
same,Normalized ThT fluorescence,Aβ42; time 7.000 h,1115.829
same,Normalized ThT fluorescence,Aβ42; time 7.167 h,1058.156
same,Normalized ThT fluorescence,Aβ42; time 7.333 h,1094.730
same,Normalized ThT fluorescence,Aβ42; time 7.500 h,1092.412
same,Normalized ThT fluorescence,Aβ42; time 7.667 h,1062.031
same,Normalized ThT fluorescence,Aβ42; time 7.833 h,1136.103
same,Normalized ThT fluorescence,Aβ42; time 8.000 h,1128.627
same,Normalized ThT fluorescence,Aβ42; time 8.167 h,1116.746
same,Normalized ThT fluorescence,Aβ42; time 8.333 h,1080.689
same,Normalized ThT fluorescence,Aβ42; time 8.500 h,1146.007
same,Normalized ThT fluorescence,Aβ42; time 8.667 h,1085.963
same,Normalized ThT fluorescence,Aβ42; time 8.833 h,1146.093
same,Normalized ThT fluorescence,Aβ42; time 9.000 h,1168.158
same,Normalized ThT fluorescence,Aβ42; time 9.167 h,1195.194
same,Normalized ThT fluorescence,Aβ42; time 9.333 h,1188.939
same,Normalized ThT fluorescence,Aβ42; time 9.500 h,1216.176
same,Normalized ThT fluorescence,Aβ42; time 9.667 h,1201.344
same,Normalized ThT fluorescence,Aβ42; time 9.833 h,1137.291
same,Normalized ThT fluorescence,Aβ42; time 10.000 h,1184.898
same,Normalized ThT fluorescence,Aβ42; time 10.167 h,1153.959
same,Normalized ThT fluorescence,Aβ42; time 10.333 h,1205.518
same,Normalized ThT fluorescence,Aβ42; time 10.500 h,1174.187
same,Normalized ThT fluorescence,Aβ42; time 10.667 h,1185.205
same,Normalized ThT fluorescence,Aβ42; time 10.833 h,1189.623
same,Normalized ThT fluorescence,Aβ42; time 11.000 h,1150.543
same,Normalized ThT fluorescence,Aβ42; time 11.167 h,1169.609
same,Normalized ThT fluorescence,Aβ42; time 11.333 h,1161.417
same,Normalized ThT fluorescence,Aβ42; time 11.500 h,1208.267
same,Normalized ThT fluorescence,Aβ42; time 11.667 h,1187.121
same,Normalized ThT fluorescence,Aβ42; time 11.833 h,1199.506
same,Normalized ThT fluorescence,Aβ42; time 12.000 h,1229.396
same,Normalized ThT fluorescence,Aβ42; time 12.167 h,1189.375
same,Normalized ThT fluorescence,Aβ42; time 12.333 h,1145.079
same,Normalized ThT fluorescence,Aβ42; time 12.500 h,1220.539
same,Normalized ThT fluorescence,Aβ42; time 12.667 h,1203.612
same,Normalized ThT fluorescence,Aβ42; time 12.833 h,1183.933
same,Normalized ThT fluorescence,Aβ42; time 13.167 h,1197.309
same,Normalized ThT fluorescence,Aβ42; time 13.333 h,1166.138
same,Normalized ThT fluorescence,Aβ42; time 13.500 h,1200.493
same,Normalized ThT fluorescence,Aβ42; time 13.667 h,1198.718
same,Normalized ThT fluorescence,Aβ42; time 13.833 h,1242.576
same,Normalized ThT fluorescence,Aβ42; time 14.000 h,1232.657
same,Normalized ThT fluorescence,Aβ42; time 14.167 h,1186.307
same,Normalized ThT fluorescence,Aβ42; time 14.333 h,1161.142
same,Normalized ThT fluorescence,Aβ42; time 14.500 h,1146.151
same,Normalized ThT fluorescence,Aβ42; time 14.667 h,1198.390
same,Normalized ThT fluorescence,Aβ42; time 14.833 h,1196.409
same,Normalized ThT fluorescence,Aβ42; time 15.000 h,1194.696
same,Normalized ThT fluorescence,Aβ42; time […],1190.377
same,increase of ThT fluorescence intensity of pre-formed Aβ42 fibrils,[1]; compound added to pre-formed fibrils,~ 20%
same,% amyloid of Aβ42,[1]; molar ratio Aβ42:tested molecule (1:1),105.449%
same,% amyloid of Aβ42,[1]; molar ratio Aβ42:tested molecule (1:5),118.857%
same,% amyloid of Aβ42,[1]; molar ratio Aβ42:tested molecule (5:1),102.097%
